Assay results reported in ChEMBL document CHEMBL1201862, “PubChem BioAssay data set” (2004).
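Compound exposure: 48 hours, 5 concentrations, 96-well plates. At the GI50, growth is halved.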 Activity calls are given as the source filed them. Cut-off read from the data, not from the text of the source: active = GI50 up to about 1.1 µM and inactive = higher.

How the values were obtained:
Experiment in all cases: NCI-60 cell line screen, 48 h
[1] = tested on: M14
[2] = tested on: CAKI-1
[3] = tested on: NCI-H460
[4] = tested on: A549
[5] = tested on: UACC-62
[6] = tested on: HCT-15
[7] = tested on: HCC 2998
[8] = tested on: ACHN
[9] = tested on: SN12C
[10] = tested on: U-251
[11] = tested on: EKVX
[12] = tested on: SK-MEL-2
[13] = tested on: NCI-H23
[14] = tested on: OVCAR-4
[15] = tested on: TK-10
[16] = tested on: KM12
[17] = tested on: HOP-92
[18] = tested on: 786-0
[19] = tested on: NCI/ADR-RES

| SMILES | GI50 [1] | GI50 [2] | GI50 [3] | GI50 [4] | GI50 [5] | GI50 [6] | GI50 [7] | GI50 [8] | GI50 [9] | GI50 [10] | GI50 [11] | GI50 [12] | GI50 [13] | GI50 [14] | GI50 [15] | GI50 [16] | GI50 [17] | GI50 [18] | GI50 [19] |
| --- | --- | --- | --- | --- | --- | --- | --- | --- | --- | --- | --- | --- | --- | --- | --- | --- | --- | --- | --- |
| COc1c2c(c3ccccc3c1O)C1C=CC2C1 (stereo not drawn) | 14.7 µM (inactive) | 17.1 µM (inactive) | 18.5 µM (inactive) | 19.2 µM (inactive) | 15.4 µM (inactive) | 10 µM | 16.1 µM (inactive) | 14.4 µM (inactive) | 15.1 µM (inactive) | 11.7 µM (inactive) | 18.8 µM (inactive) | 17.3 µM (inactive) | 14.6 µM (inactive) | 15.4 µM (inactive) | 22.3 µM (inactive) | 17.6 µM (inactive) | – | – | – |
| COC(=O)C1=C(C)N2CCSC2(C)C(C(=O)OC)C1c1cccc(Cl)c1 (stereo not drawn) | 30.1 µM (inactive) | 14 µM (inactive) | 18.8 µM (inactive) | 20.4 µM (inactive) | 12.8 µM (inactive) | – | 21 µM (inactive) | 24.8 µM (inactive) | – | – | 12.6 µM (inactive) | 17.7 µM (inactive) | 20.5 µM (inactive) | 49.7 µM (inactive) | 41.9 µM (inactive) | 18.8 µM (inactive) | 13.4 µM (inactive) | – | – |
| Oc1cc2cc(O)nc(O)c2c(O)n1 | > 100 µM (inactive) | > 100 µM (inactive) | > 100 µM (inactive) | > 100 µM (inactive) | > 100 µM (inactive) | > 100 µM | – | – | > 100 µM (inactive) | > 100 µM (inactive) | – | – | > 100 µM (inactive) | > 100 µM (inactive) | > 100 µM (inactive) | > 100 µM (inactive) | > 100 µM (inactive) | – | – |
| CC(=N/NC(=S)Nc1c(C)n(C)n(-c2ccccc2)c1=O)/C(C)=N\NC(=S)Nc1c(C)n(C)n(-c2ccccc2)c1=O | > 100 µM (inactive) | > 100 µM (inactive) | > 100 µM (inactive) | > 100 µM (inactive) | > 100 µM (inactive) | > 100 µM | > 100 µM (inactive) | > 100 µM (inactive) | – | > 100 µM (inactive) | > 100 µM (inactive) | > 100 µM (inactive) | > 100 µM (inactive) | > 100 µM (inactive) | > 100 µM (inactive) | > 100 µM (inactive) | > 100 µM (inactive) | > 100 µM (inactive) | > 100 µM (inactive) |
| CN(C)/N=C(/CC(O)(C(F)(F)F)C(F)(F)F)c1ccc([N+](=O)[O-])cc1 | > 100 µM (inactive) | > 100 µM (inactive) | > 100 µM (inactive) | > 100 µM (inactive) | > 100 µM (inactive) | > 100 µM | > 100 µM (inactive) | > 100 µM (inactive) | > 100 µM (inactive) | > 100 µM (inactive) | > 100 µM (inactive) | > 100 µM (inactive) | > 100 µM (inactive) | > 100 µM (inactive) | – | > 100 µM (inactive) | > 100 µM (inactive) | > 100 µM (inactive) | > 100 µM (inactive) |
| BrC(/C=N/Nc1nnc(-c2ccccc2)c(-c2ccccc2)n1)C(Br)c1ccccc1 (stereo not drawn) | 21.6 µM (inactive) | 30.7 µM (inactive) | 35.2 µM (inactive) | 29.3 µM (inactive) | 18.6 µM (inactive) | 28.7 µM | 30.3 µM (inactive) | 31 µM (inactive) | 48.8 µM (inactive) | 28.2 µM (inactive) | 29.9 µM (inactive) | 19.9 µM (inactive) | 22.2 µM (inactive) | > 10 µM (inactive) | 35.8 µM (inactive) | 32.9 µM (inactive) | 20.3 µM (inactive) | 32 µM (inactive) | – |
| CCS/C(=N\c1ccccc1)SC | > 100 µM (inactive) | > 100 µM (inactive) | > 100 µM (inactive) | > 100 µM (inactive) | > 100 µM (inactive) | > 100 µM | > 100 µM (inactive) | > 100 µM (inactive) | > 100 µM (inactive) | > 100 µM (inactive) | > 100 µM (inactive) | > 100 µM (inactive) | > 100 µM (inactive) | > 100 µM (inactive) | > 100 µM (inactive) | > 100 µM (inactive) | > 100 µM (inactive) | > 100 µM (inactive) | – |
| CN(C)c1nc(N(C)C)sc(=O)n1 | > 100 µM (inactive) | > 100 µM (inactive) | > 100 µM (inactive) | > 100 µM (inactive) | > 100 µM (inactive) | > 100 µM | > 100 µM (inactive) | > 100 µM (inactive) | > 100 µM (inactive) | > 100 µM (inactive) | > 100 µM (inactive) | > 100 µM (inactive) | > 100 µM (inactive) | > 100 µM (inactive) | > 100 µM (inactive) | > 100 µM (inactive) | > 100 µM (inactive) | > 100 µM (inactive) | – |
